# Source: publication PMC5218480 (PLoS ONE, 2017)
# System: MV-4-11 cells
# Assay: Gene expression microarray analysis (Affymetrix PrimeView) and GSEA
# Format: cell-based, human
# Parameters: RFU PODN (11730768_x_at) / Fold change /veh PODN (11730768_x_at) / RFU LINC00158 (11744669_a_at) / Fold change /veh LINC00158 (11744669_a_at) / RFU DUSP10 (11751237_a_at) / Fold change /veh DUSP10 (11751237_a_at) / RFU ID3 (11757404_x_at) / Fold change /veh ID3 (11757404_x_at) / RFU PLEKHG5 (11737974_s_at) / Fold change /veh PLEKHG5 (11737974_s_at) / RFU LRRC4B (11730491_at) / Fold change /veh LRRC4B (11730491_at) / RFU GIMAP4 (11747438_a_at) / Fold change /veh GIMAP4 (11747438_a_at) / RFU KRT8 (11758183_x_at) / Fold change /veh KRT8 (11758183_x_at) / RFU CNN1 (11734310_a_at) / Fold change /veh CNN1 (11734310_a_at) / RFU VPS37D (11726825_at) / Fold change /veh VPS37D (11726825_at) / RFU C10orf10 (11716522_x_at) / Fold change /veh C10orf10 (11716522_x_at) / RFU KIR2DL2 /// KIR2DL4 /// KIR2DL5A /// KIR2DL5B /// KIR2DS1 /// KIR2DS2 /// KIR2DS3 /// KIR2DS4 /// KIR3DL3 /// KIR3DL3 /// KIR3DS1 (11738374_at) / Fold change /veh KIR2DL2 /// KIR2DL4 /// KIR2DL5A /// KIR2DL5B /// KIR2DS1 /// KIR2DS2 /// KIR2DS3 /// KIR2DS4 /// KIR3DL3 /// KIR3DL3 /// KIR3DS1 (11738374_at) / RFU C1QL1 (11718748_at) / Fold change /veh C1QL1 (11718748_at) / RFU TMPRSS4 (11747572_a_at) / Fold change /veh TMPRSS4 (11747572_a_at) / RFU HAMP (11756126_x_at) / Fold change /veh HAMP (11756126_x_at) / RFU RNFT2 (11725882_a_at) / Fold change /veh RNFT2 (11725882_a_at) / RFU NR4A2 (11747474_a_at) / Fold change /veh NR4A2 (11747474_a_at) / RFU ABCC12 (11746883_a_at) / Fold change /veh ABCC12 (11746883_a_at) / RFU TMEM136 (11760407_x_at) / Fold change /veh TMEM136 (11760407_x_at) / RFU CLDN22 /// WWC2 (11732394_at) / Fold change /veh CLDN22 /// WWC2 (11732394_at) / RFU HLA-DPB1 (11760878_x_at) / Fold change /veh HLA-DPB1 (11760878_x_at) / RFU SPINT1 (11716480_a_at) / Fold change /veh SPINT1 (11716480_a_at) / RFU GAP43 (11754022_s_at) / Fold change /veh GAP43 (11754022_s_at) / RFU A4GNT (11735810_at) / Fold change /veh A4GNT (11735810_at) / RFU PRB3 (11715151_x_at) / Fold change /veh PRB3 (11715151_x_at) / RFU TUBB4B (11761932_at) / Fold change /veh TUBB4B (11761932_at) / RFU CAPN14 (11732068_a_at) / Fold change /veh CAPN14 (11732068_a_at) / RFU TMCC2 (11721928_a_at) / Fold change /veh TMCC2 (11721928_a_at) / RFU IRGQ (11745062_a_at) / Fold change /veh IRGQ (11745062_a_at) / RFU FAM174B (11720279_a_at) / Fold change /veh FAM174B (11720279_a_at) / RFU TMPRSS4 (11748680_a_at) / Fold change /veh TMPRSS4 (11748680_a_at) / RFU FAM212B (11763350_a_at) / Fold change /veh FAM212B (11763350_a_at) / RFU PLEKHG5 (11743358_a_at) / Fold change /veh PLEKHG5 (11743358_a_at) / RFU ZSCAN30 (11745921_a_at) / Fold change /veh ZSCAN30 (11745921_a_at) / RFU CMKLR1 (11741424_a_at) / Fold change /veh CMKLR1 (11741424_a_at) / RFU LOC101060620 /// MAPK8IP1 (11723275_at) / Fold change /veh LOC101060620 /// MAPK8IP1 (11723275_at) / RFU SPTSSB (11747773_x_at) / Fold change /veh SPTSSB (11747773_x_at) / RFU PRSS12 (11739890_at) / Fold change /veh PRSS12 (11739890_at) / RFU BIN1 (11741810_x_at) / Fold change /veh BIN1 (11741810_x_at) / RFU WNT11 (11732464_a_at) / Fold change /veh WNT11 (11732464_a_at) / RFU C10orf10 (11716521_a_at) / Fold change /veh C10orf10 (11716521_a_at) / RFU C5orf56 (11738089_at) / Fold change /veh C5orf56 (11738089_at) / RFU CYB561 (11721691_x_at) / Fold change /veh CYB561 (11721691_x_at) / RFU ANKRD19P (11752326_a_at) / Fold change /veh ANKRD19P (11752326_a_at) / RFU OR2T12 /// OR2T33 /// OR2T8 (11738714_s_at) / Fold change /veh OR2T12 /// OR2T33 /// OR2T8 (11738714_s_at) / RFU VCAN (11748164_a_at) / Fold change /veh VCAN (11748164_a_at) / RFU JSRP1 (11732532_at) / Fold change /veh JSRP1 (11732532_at) / RFU KRTAP10-11 (11738290_x_at) / Fold change /veh KRTAP10-11 (11738290_x_at) / RFU MYO3A (11730013_a_at) / Fold change /veh MYO3A (11730013_a_at) / RFU EBF3 (11725865_a_at) / Fold change /veh EBF3 (11725865_a_at) / RFU CAMK2N1 (11719241_x_at) / Fold change /veh CAMK2N1 (11719241_x_at) / RFU C5orf56 (11738088_a_at) / Fold change /veh C5orf56 (11738088_a_at) / RFU OLFML3 (11715873_a_at) / Fold change /veh OLFML3 (11715873_a_at) / RFU LOC100653217 /// NTM (11731650_a_at) / Fold change /veh LOC100653217 /// NTM (11731650_a_at) / RFU MAPK11 (11762145_a_at) / Fold change /veh MAPK11 (11762145_a_at) / RFU FIZ1 (11724087_x_at) / Fold change /veh FIZ1 (11724087_x_at) / RFU OASL (11726364_x_at) / Fold change /veh OASL (11726364_x_at) / RFU SOX15 (11748057_x_at) / Fold change /veh SOX15 (11748057_x_at) / RFU CD79A (11719716_a_at) / Fold change /veh CD79A (11719716_a_at) / RFU HIST1H1D (11736915_at) / Fold change /veh HIST1H1D (11736915_at) / RFU CASKIN2 (11723855_a_at) / Fold change /veh CASKIN2 (11723855_a_at) / RFU LOC730098 (11760151_x_at) / Fold change /veh LOC730098 (11760151_x_at) / RFU OR4N2 (11742367_at) / Fold change /veh OR4N2 (11742367_at) / RFU PRRT2 (11749266_a_at) / Fold change /veh PRRT2 (11749266_a_at) / RFU SNX32 (11753110_a_at) / Fold change /veh SNX32 (11753110_a_at) / RFU CDHR5 (11726645_a_at) / Fold change /veh CDHR5 (11726645_a_at) / RFU RCAN1 (11760418_a_at) / Fold change /veh RCAN1 (11760418_a_at) / RFU FAM167A (11723789_a_at) / Fold change /veh FAM167A (11723789_a_at) / RFU FAM26E (11764081_at) / Fold change /veh FAM26E (11764081_at) / RFU ISYNA1 (11749810_s_at) / Fold change /veh ISYNA1 (11749810_s_at) / RFU ACY1 (11761880_at) / Fold change /veh ACY1 (11761880_at) / RFU 11764098_at / Fold change /veh 11764098_at / RFU SAMD14 (11745864_x_at) / Fold change /veh SAMD14 (11745864_x_at) / RFU NPB (11741838_a_at) / Fold change /veh NPB (11741838_a_at) / RFU TMPRSS6 (11731388_a_at) / Fold change /veh TMPRSS6 (11731388_a_at) / RFU KRTAP10-2 (11738614_at) / Fold change /veh KRTAP10-2 (11738614_at) / RFU ARHGAP8 /// PRR5-ARHGAP8 (11727945_x_at) / Fold change /veh ARHGAP8 /// PRR5-ARHGAP8 (11727945_x_at) / RFU KRTAP5-7 /// NADSYN1 (11734609_at) / Fold change /veh KRTAP5-7 /// NADSYN1 (11734609_at) / RFU RASL12 (11751679_a_at) / Fold change /veh RASL12 (11751679_a_at) / RFU CDKN2B (11736163_a_at) / Fold change /veh CDKN2B (11736163_a_at) / RFU PRF1 (11729649_at) / Fold change /veh PRF1 (11729649_at) / RFU, ZNF638 /// ZNF638-IT1 / Fold change vs veh, ZNF638 /// ZNF638-IT1 / RFU, PANK3 / Fold change vs veh, PANK3 / RFU, SH3YL1 / Fold change vs veh, SH3YL1 / RFU, ZEB2 / Fold change vs veh, ZEB2 / RFU, NRIP1 / Fold change vs veh, NRIP1 / RFU, PTTG1IP / Fold change vs veh, PTTG1IP / RFU, CAPN2 / Fold change vs veh, CAPN2 / RFU, MED14 / Fold change vs veh, MED14 / RFU, SNORA58 / Fold change vs veh, SNORA58 / RFU, C1orf63 / Fold change vs veh, C1orf63 / RFU, LRRFIP1 / Fold change vs veh, LRRFIP1 / RFU, NDUFAF7 / Fold change vs veh, NDUFAF7 / RFU, SLC12A2 / Fold change vs veh, SLC12A2 / RFU, IBTK / Fold change vs veh, IBTK / RFU, ESF1 / Fold change vs veh, ESF1 / Fold change vs veh, TMEM50B / RFU, TAOK1 / Fold change vs veh, TAOK1 / RFU, ACBD3 / Fold change vs veh, ACBD3 / RFU, TMA16 / Fold change vs veh, TMA16 / RFU, RWDD3 / Fold change vs veh, RWDD3 / RFU, BCAT1 / Fold change vs veh, BCAT1 / RFU, EDEM3 / Fold change vs veh, EDEM3 / RFU, TMEM33 / Fold change vs veh, TMEM33 / RFU, WDR75 / Fold change vs veh, WDR75 / RFU, AHCTF1 / Fold change vs veh, AHCTF1 / RFU, TFRC / Fold change vs veh, TFRC / RFU, ZDHHC17 / Fold change vs veh, ZDHHC17 / RFU, NOM1 / Fold change vs veh, NOM1 / RFU, ARL8B / Fold change vs veh, ARL8B / RFU, ZBTB11 / Fold change vs veh, ZBTB11 / RFU, TAMM41 / Fold change vs veh, TAMM41 / RFU, KIAA1704 /// LOC100996395 / Fold change vs veh, KIAA1704 /// LOC100996395 / RFU, ING1 / Fold change vs veh, ING1 / RFU, TRMT61B / Fold change vs veh, TRMT61B / RFU, FUBP3 / Fold change vs veh, FUBP3 / RFU, TP53 / Fold change vs veh, TP53 / RFU, TNKS2 / Fold change vs veh, TNKS2 / RFU, ZFP14 / Fold change vs veh, ZFP14 / RFU, ACTR2 / Fold change vs veh, ACTR2 / RFU, PPP3R1 / Fold change vs veh, PPP3R1 / RFU, PIK3R1 / Fold change vs veh, PIK3R1 / RFU, HNRNPA1 / Fold change vs veh, HNRNPA1 / RFU, RNF170 / Fold change vs veh, RNF170 / RFU, ZNF28 / Fold change vs veh, ZNF28 / RFU, RNGTT / Fold change vs veh, RNGTT / RFU, OGT / Fold change vs veh, OGT / RFU, BRD1 / Fold change vs veh, BRD1 / RFU, MARS / Fold change vs veh, MARS / RFU, ZNF655 / Fold change vs veh, ZNF655 / RFU, FAHD1 / Fold change vs veh, FAHD1 / RFU, BDP1 / Fold change vs veh, BDP1 / RFU, LRRCC1 / Fold change vs veh, LRRCC1 / RFU, ARID1A / Fold change vs veh, ARID1A / RFU, ZNF146 / Fold change vs veh, ZNF146 / RFU, ZNF330 / Fold change vs veh, ZNF330 / RFU, GPN3 / Fold change vs veh, GPN3 / RFU, C9orf123 / Fold change vs veh, C9orf123 / RFU, N4BP2L2 / Fold change vs veh, N4BP2L2 / RFU, ARFIP1 / Fold change vs veh, ARFIP1 / RFU, FAM179B / Fold change vs veh, FAM179B / RFU, BCL10 / Fold change vs veh, BCL10 / RFU, UHRF1BP1L / Fold change vs veh, UHRF1BP1L / RFU, BET1 / Fold change vs veh, BET1 / RFU, CNOT2 / Fold change vs veh, CNOT2 / RFU, ZNF268 / Fold change vs veh, ZNF268 / Fold change vs veh, ZNF507 / RFU, DGCR2 / Fold change vs veh, DGCR2 / RFU, WDSUB1 / Fold change vs veh, WDSUB1 / Fold change vs veh, HSP90B1 /// MIR3652 / RFU, ADSS / Fold change vs veh, ADSS / RFU, GK / Fold change vs veh, GK / RFU, ZNF148 / Fold change vs veh, ZNF148 / RFU, TAF9 / Fold change vs veh, TAF9 / RFU, SLC1A5 / Fold change vs veh, SLC1A5 / RFU, SLMO2 / Fold change vs veh, SLMO2 / RFU, ABCC4 / Fold change vs veh, ABCC4 / RFU, LOC101060439 /// RAP1B / Fold change vs veh, LOC101060439 /// RAP1B / RFU, RFX7 / Fold change vs veh, RFX7 / RFU, GTPBP10 / Fold change vs veh, GTPBP10 / RFU, CNEP1R1 / Fold change vs veh, CNEP1R1 / RFU, BIVM-ERCC5 /// ERCC5 / Fold change vs veh, BIVM-ERCC5 /// ERCC5 / RFU, ILF3 / Fold change vs veh, ILF3 / RFU 11762660_at / Fold change /veh 11762660_at / RFU VCAN (11757783_s_at) / Fold change /veh VCAN (11757783_s_at) / RFU DDX43 (11728927_at) / Fold change /veh DDX43 (11728927_at) / RFU KRT8 (11758188_x_at) / Fold change /veh KRT8 (11758188_x_at) / RFU NKD1 (11759106_at) / Fold change /veh NKD1 (11759106_at) / RFU SRD5A1 (11742802_a_at) / Fold change /veh SRD5A1 (11742802_a_at) / RFU TPSAB1 /// TPSB2 (11721975_s_at) / Fold change /veh TPSAB1 /// TPSB2 (11721975_s_at) / RFU GSTM3 (11746129_a_at) / Fold change /veh GSTM3 (11746129_a_at) / RFU IL23R (11737362_x_at) / Fold change /veh IL23R (11737362_x_at) / RFU TMEM51 (11727254_a_at) / Fold change /veh TMEM51 (11727254_a_at) / RFU PIWIL2 (11732686_x_at) / Fold change /veh PIWIL2 (11732686_x_at) / RFU ORM1 (11744905_x_at) / Fold change /veh ORM1 (11744905_x_at) / RFU CCDC152 (11743942_at) / Fold change /veh CCDC152 (11743942_at) / RFU ECM1 (11717891_a_at) / Fold change /veh ECM1 (11717891_a_at) / RFU IL23R (11748794_a_at) / Fold change /veh IL23R (11748794_a_at) / RFU TNFAIP8L3 (11732012_x_at) / Fold change /veh TNFAIP8L3 (11732012_x_at) / RFU MBOAT4 (11741988_at) / Fold change /veh MBOAT4 (11741988_at) / RFU 11764193_at / Fold change /veh 11764193_at / RFU TMEM53 (11763286_at) / Fold change /veh TMEM53 (11763286_at) / RFU MAGEB2 (11727129_at) / Fold change /veh MAGEB2 (11727129_at) / RFU TMEM200A (11744735_a_at) / Fold change /veh TMEM200A (11744735_a_at) / RFU CCDC152 (11751479_a_at) / Fold change /veh CCDC152 (11751479_a_at) / RFU FAM211A (11726209_a_at) / Fold change /veh FAM211A (11726209_a_at) / RFU RGS16 (11746705_a_at) / Fold change /veh RGS16 (11746705_a_at) / RFU VCAN (11755009_s_at) / Fold change /veh VCAN (11755009_s_at) / RFU RHOB (11743442_s_at) / Fold change /veh RHOB (11743442_s_at) / RFU RGS16 (11720943_a_at) / Fold change /veh RGS16 (11720943_a_at) / RFU RGS16 (11720944_at) / Fold change /veh RGS16 (11720944_at) / RFU, VPS4B / Fold change vs veh, VPS4B / RFU, CREB1 / Fold change vs veh, CREB1 / RFU, DNAJC13 / Fold change vs veh, DNAJC13 / RFU, GNAQ / Fold change vs veh, GNAQ / RFU, CDK5R1 / Fold change vs veh, CDK5R1 / RFU, ZRANB3 / Fold change vs veh, ZRANB3 / RFU, CUL4A / Fold change vs veh, CUL4A / RFU, CCNY / Fold change vs veh, CCNY / RFU, UFL1 / Fold change vs veh, UFL1 / RFU, COG3 / Fold change vs veh, COG3 / RFU, DIAPH2 / Fold change vs veh, DIAPH2 / RFU, SKA2 / Fold change vs veh, SKA2 / RFU, AFF3 / Fold change vs veh, AFF3 / RFU, LMF1 / Fold change vs veh, LMF1 / RFU, IPO11 / Fold change vs veh, IPO11 / RFU, DFFB / Fold change vs veh, DFFB / RFU, FOXP1 / Fold change vs veh, FOXP1 / RFU, CARD8 / Fold change vs veh, CARD8 / RFU, STRN3 / Fold change vs veh, STRN3 / RFU, ADK / Fold change vs veh, ADK / RFU, RASSF2 / Fold change vs veh, RASSF2 / RFU, WIPF1 / Fold change vs veh, WIPF1 / RFU, LARP1B / Fold change vs veh, LARP1B / RFU, RASA1 / Fold change vs veh, RASA1 / RFU, RB1 / Fold change vs veh, RB1 / RFU, PPFIA1 / Fold change vs veh, PPFIA1 / RFU, MAT2A / Fold change vs veh, MAT2A / RFU, CCT5 / Fold change vs veh, CCT5 / RFU, WDR92 / Fold change vs veh, WDR92 / RFU, CUX1 / Fold change vs veh, CUX1 / RFU, TTC7A / Fold change vs veh, TTC7A / RFU, TMEM135 / Fold change vs veh, TMEM135 / RFU, DEPTOR / Fold change vs veh, DEPTOR / RFU, CPM / Fold change vs veh, CPM / RFU, DNAJB6 / Fold change vs veh, DNAJB6 / RFU, CACNA2D3 / Fold change vs veh, CACNA2D3 / RFU, DTX4 / Fold change vs veh, DTX4 / RFU, TFCP2 / Fold change vs veh, TFCP2 / RFU, GMCL1 /// GMCL1P1 / Fold change vs veh, GMCL1 /// GMCL1P1 / RFU, AEBP2 / Fold change vs veh, AEBP2 / RFU, SNHG1 /// SNORD22 /// SNORD25 /// SNORD26 /// SNORD27 /// SNORD28 /// SNORD29 /// SNORD31 / Fold change vs veh, SNHG1 /// SNORD22 /// SNORD25 /// SNORD26 /// SNORD27 /// SNORD28 /// SNORD29 /// SNORD31 / Fold change (Aza/veh), C12orf56 (ProbeSet 11735607_a_at) / Fold change (ACY-1035/veh), C12orf56 (ProbeSet 11735607_a_at) / Fold change (Aza/veh), FGFR1OP (ProbeSet 11751329_s_at) / Fold change (ACY-1035/veh), FGFR1OP (ProbeSet 11751329_s_at) / Fold change (Aza/veh), VPS36 (ProbeSet 11739960_a_at) / Fold change (ACY-1035/veh), VPS36 (ProbeSet 11739960_a_at) / RFU SYPL1 (11715823_x_at) / Fold change /veh SYPL1 (11715823_x_at) / RFU IGFBP7 (11715501_s_at) / Fold change /veh IGFBP7 (11715501_s_at) / RFU REEP3 (11722064_at) / Fold change /veh REEP3 (11722064_at) / RFU IGLL1 (11728026_x_at) / Fold change /veh IGLL1 (11728026_x_at): dose or concentration left out as unconfirmed
# Details: ProbeSet 11723930_at; LIST D
smiles,measurement,value
Nc1ncn([C@@H]2O[C@H](CO)[C@@H](O)[C@H]2O)c(=O)n1 [azacitidine],"RFU, CCT5",106.24 RFU
